Reference: US5326882A, “Chemiluminescent 3-(substituted Adamant-2'-Ylidene) 1,2-dioxetanes” (Tropix, Inc., priority 1992, dated 1994)

Experiments:
[1] = target: alkaline phosphatase (Bos taurus, UniProt P19111); experiment: Detection limits for alkaline phosphatase, Berthold LB952T (Example XXII); assay type: biochemical; settings: twice background
Protocol: The detection means for alkaline phosphatase with different chemiluminescent 1,2-dioxetane substrates were determined as follows: Duplicates of serial dilutions (1 to 3) of alkaline phosphates were incubated at room temperature with 0.4 mM dioxetane in 0.1 M diethanolamine, 1 mM MgCl2, pH 10.0, containing 1 mg/ml of either of the polymeric enhancers Enhancer 1 or Enhancer 2, in […].
Following either a 5 or a 20 minute incubation with a substrate, the chemiluminescence intensity was measured as a 5 second integrated Relative Light Units (RLU) and plotted as in FIG. 10. […] The alkaline phosphatase concentrations at twice background were used as the detection limits in Table 5.

[2] = system: alkaline phosphatase ("AP"); settings: cited from earlier work
[3] = target: T1, avidin-alkaline phosphatase conjugate (Bos taurus, UniProt P19111); experiment: Dot blot of biotinylated pBr 322 35-mer on nylon membrane, instant film (Example XIV); settings: 0.25 mM, pH 10, nylon membrane, FIG. 11
T1 construct: purchased Sigma, Inc., St. Louis, Mo
T1 sequence (P19111 20-506 limits assumed): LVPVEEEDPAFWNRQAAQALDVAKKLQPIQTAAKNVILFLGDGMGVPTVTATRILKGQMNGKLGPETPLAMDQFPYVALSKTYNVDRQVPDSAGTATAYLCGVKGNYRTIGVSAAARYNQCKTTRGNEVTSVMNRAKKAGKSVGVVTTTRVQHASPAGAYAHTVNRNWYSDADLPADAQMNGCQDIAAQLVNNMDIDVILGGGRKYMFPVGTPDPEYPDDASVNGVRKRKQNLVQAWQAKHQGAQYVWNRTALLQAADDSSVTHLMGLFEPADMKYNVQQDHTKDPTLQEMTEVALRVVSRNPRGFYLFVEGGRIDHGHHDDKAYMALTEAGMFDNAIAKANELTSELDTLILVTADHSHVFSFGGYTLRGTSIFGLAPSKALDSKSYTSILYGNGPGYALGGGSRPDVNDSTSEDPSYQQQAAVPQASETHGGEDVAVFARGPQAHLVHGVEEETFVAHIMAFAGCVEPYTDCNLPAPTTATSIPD
T1 sequence (P02701 25-152 partner): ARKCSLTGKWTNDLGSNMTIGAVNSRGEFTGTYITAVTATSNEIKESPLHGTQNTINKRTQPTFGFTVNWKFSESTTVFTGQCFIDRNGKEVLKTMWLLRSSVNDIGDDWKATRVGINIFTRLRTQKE
Protocol: A strip of neutral BIODYNE A nylon membrane (Pall Corporation, Glen Cove, N.Y.) was dotted twice (side-by-side) with the following concentrations of biotinylated pBr 322 35-mer oligonucleotide probe (Synthetic Genetics, San Diego, Calif.):
Next, the membrane was blocked in 0.2% casein/0.1% Tween 20 detergent in aqueous phosphate buffered saline solution (PBS) for 1 hour, following which 1/5000 diluted avidin-alkaline phosphatase conjugate (Sigma, Inc., St. Louis, Mo.) in 0.2% casein in PBS was added. The membrane was then incubated for 30 minutes, washed twice (for 5 minutes each time) in 0.2% casein/0.1% Tween 20 detergent in PBS, washed four times (for 5 minutes each time) in 0.3% Tween 20 detergent in PBS, and twice (for 5 minutes each time) in aqueous 0.1M diethanolamine containing 1 mM magnesium chloride, pH 10.0.
The membrane was then cut up the middle to give two strips, each bearing one set of dots. One of the strips was incubated for 5 minutes in aqueous AMPPD solution (0.25 mM in 0.1M diethanolamine containing 1 mM magnesium chloride, pH 10), the other for 5 minutes in the corresponding chloroadamant-2'-ylidene compound (0.25 mM in the same buffer). The two strips were then placed in camera luminometers and exposed on Polaroid Type 612 instant black and white film.

Sequence of alkaline phosphatase (P19111 20-506 limits assumed): as the sequence (P19111 20-506 limits assumed) above

Row | SMILES | Detection limit for alkaline phosphatase ([1]; ENHANCER 1, 5 MIN) [femtomoles/liter] | Detection limit for alkaline phosphatase ([1]; ENHANCER 1, 20 MIN) [femtomoles/liter] | Detection limit for alkaline phosphatase ([1]; ENHANCER 2, 5 MIN) [femtomoles/liter] | Detection limit for alkaline phosphatase ([1]; ENHANCER 2, 20 MIN) [femtomoles/liter] | moles whose phosphoryloxy group is cleaved by a single mole of alkaline phosphatase per second [2] | chemiluminescence intensity as compared to AMPPD [3]
1 | COC1(c2cccc(OP(=O)(O)O)c2)OOC12C1CC3CC(C1)CC2C3 (stereo not shown) [AMPPD, 3-(4-methoxyspiro[1,2-dioxetane-3,2'-triyclo[3.3.1.1^3,7]decan]-4-yl)phenyl phosphate, reference compound] | 4.0 | 1.4 | 3.5 | 1.1 | 1,000-5,000 moles per second | –
2 | COC1(c2cccc(OP(=O)(O)O)c2)OOC12C1CC3CC2CC(Cl)(C3)C1 (stereo not shown) [Cl-AMPPD, disodium 3-(4-methoxyspiro-[1,2-dioxetane-3,2'-(5'-chloro)tricyclo[3.3.1.1^3,7]decan]-4-yl) phenyl phosphate] | 1.0 | 0.6 | 0.8 | 0.4 | – | improved chemiluminescence intensity
